Data: patent US20060058394A1, “Medicine of post-traumatic stress disorder” (KYOTO UNIVERSITY, priority 2001, published 2006)

Experiments:
WT mice = assay: Action of jumping off platform; assay type: in vivo; settings: 10 mg/kg i.p., about 20 cm high platform, 7 minutes, FIG. 5
Description: Wild mice, EP1 or EP3 receptor-deficient mice, or WT mice to which 10 mg/kg of EP1 antagonist (the same as experiment example 1 was used.) was intraperitoneally administered put on about 20 cm high platform (beaker), and the presence of the action of jumping off was observed.

C57BL/6 mice = assay: Decrease of spontaneous locomotor activity by LPS induction; assay type: in vivo; settings: wild mice; LPS 0.1 mg/kg i.p.; 0.1% (W/W) EP1 antagonist mixed with food; 12 hours, 8 p.m. to 8 a.m.; FIG. 4
Description: 0.1 mg/kg of LPS is intraperitoneally administered to C57BL/6 mice, they are put in acrylic cage (30×45×35 cm (height), and the momentum for 12 hours from the 8 p.m. to 8 a.m. of next morning was measured with mouse action meter, Infrared photo beam counter (Neuroscience Co., Ltd., Tokyo, Japan). 0.1% (W/W) of EP1 antagonist (the same as experiment example 1 was used) mixed with food was given. Similarly, the difference of the momentum by administering LPS were compared by using wild mice (WT) and EP1 receptor-deficient mice.

wild mice = assay: Social behaviors on cohabiting with young male mice (smelling action); assay type: in vivo; settings: wild mice cohabiting with young male mice (5 weeks of age)
Source text: (§1) The action admitted when wild mice (WT) or EP1 receptor-deficient mice cohabit with young male mice (5 weeks of ages) was observed.

ACTH in plasma = assay: ACTH production by LPS induction; assay type: in vivo, C57BL/6 strain mice; settings: wild type mice; LPS 0.1 mg/kg i.p.; blood 60 minutes after LPS; EP1 antagonist given 1 hour before LPS; FIG. 2
Description: 0.1 mg/kg of LPS (lipopolysaccharide) as an infectious stress was intraperitoneally administered to C57BL/6 strain mice. The blood be gathered at 60 minutes later after administering LPS, the induced stress reaction, that is, activation of hypothalamus-pituitary-adrenal system were measured as a marker on ACTH in plasma. ACTH was measured with ACTH IRMA kit (Mitsubishi Yuka Medical Co., Tokyo, Japan). (4-[2-(N-isobutyl-2-furanylsulfonylamino)-5-trifluoromethylphenoxymethyl]cinna mic acid (the compound which had been described to example 18(94) in WO98/27053, was used.), which is EP1 antagonist, was administered 1 hour ago before administering LPS.

[1] = test system: EP1 receptor-deficient mice; assay: Aggressive behavior after administering haloperidol; assay type: in vivo; settings: EP1 receptor-deficient mice given haloperidol
Description: After two male mice (wild mice (WT) or EP1 receptor-deficient mice) were put in 3 L of glass container and stimulated by the electroshock (1 H, 200 m seconds, 0.3 mA for 3 minutes), these aggressive behaviors were recorded to the video. The time up to the first aggressive behavior (latency; second) and the attack frequency, and total attack time was compared.
as §1
As a result of experiment similar to experiment example 6 by administering haloperidol to EP1 receptor-deficient mice, it was confirmed that the time up to the first attack elongates, the attack frequency decreases, and the total of attack time shortens.

[2] = test system: EP1 receptor-deficient mice; assay: Spontaneous locomotor activity after administering haloperidol; assay type: in vivo; settings: EP1 receptor-deficient mice given haloperidol
Description: Furthermore, it was also confirmed that the spontaneous locomotor activity decreased when haloperidol was administered to EP1 receptor-deficient mice.

In the case of `CC(C)CN(c1ccc(C(F)(F)F)cc1OCc1ccc(C=CC(=O)O)cc1)S(=O)(=O)c1ccco1` [EP1 antagonist, 4-[2-(N-isobutyl-2-furanylsulfonylamino)-5-trifluoromethylphenoxymethyl]cinna mic acid], the “mice jumped off the platform” value (WT mice) is reported as “All mice in the EP1 antagonist administrated group jumped off the platform 7 minutes later”, the “decrease of the spontaneous locomotor activity induced by LPS” value (C57BL/6 mice) is reported as “has decreased” and the “time of the smelling action” value (wild mice) is reported as “shortened”. For the same compound, the “amount of ACTH production by LPS-induction” value (ACTH in plasma) was “significantly decreases”.
`O=C(CCCN1CCC(O)(c2ccc(Cl)cc2)CC1)c1ccc(F)cc1` [haloperidol] was tested, and the attack frequency [1] was “decreases”, the “time up to the first attack” value [1] was “elongates” and the “total of attack time” value [1] was “shortens”. For the same compound, the spontaneous locomotor activity [2] was “decreased”.
